Columns and labels:
[1] = in vivo; cited from earlier work
[2] = Female Wistar rats fed high fat diet for 56 days (Example 4); format: in vivo
Protocol: Sixty female Wistar rats, averaging 220 g in weight, were randomly allotted to five experimental groups and fed the high fat diet described in Table I below for 56 days. The rats were housed individually in wire mesh cages equipped with an automated watering system. The room housing the rats was maintained at a temperature of 22° to 24° C., with a light-dark cycle of 12 hours each. Following the one-week quarantine period the rats were adapted to handling, and to oral insertion of the gastric intubation device over the next ten days. Water was intubated once a day during this period. After ten days, the rats no longer indicated marked distress during the procedure.
After adaption to the intubation procedure, the diet of Table I was initiated. This diet is comprised of 56% of energy from fat. All treatment and placebo intubations occurred between 1600 and 1800 hours. Individual food intake was measured daily throughout the study. Body weight was measured daily through day 23 and twice weekly thereafter. The experimental period lasted 56 days. Lin, X., M. R. Chavex, R. C. Bruch, et al., J. Nutrition 128:1606-13, 1998.
Referring to Table II below, the five groups consisted of: the control group (n=15), which were fed ad libitum, and were intubated daily with 1 mL of water. The “low dose DRD” (n=10) and the “high dose DRD” (n=15) groups, which were fed ad libitum and administered daily 1 mL of the aqueous extract obtained from 0.75 grams and 1.50 grams of the initial dried herb mixture by intubation, respectively. The “fenfluramine group” (n=10), which was fed ad libitum and received 2 mg/kg fenfluramine in 1 mL of water daily, by intubation, and, finally, a fifth group (n=10) was pair-fed to the high dose DRD group and was administered 1 mL of water daily, by intubation.
Food consumption for all rats was determined daily, and body weights were obtained daily for the first 23 days, and then twice a week for the next 33 days. After 56 days all the rats except five from the control group and five from the high dose DRD group were sacrificed. Trunk blood was collected, and the eviscerated carcasses were homogenized, dried and assayed for body composition. White and brown fat depots, liver, kidney, spleen, heart, and gastrocnemius muscle were weighed. During the 56 days of the experiment, all rats were observed daily by the animal technician, and weekly by a veterinarian, and notations were made regarding physical activity/lethargy, fur condition, skin condition, eye condition, stools, and “others.” There were no noticeable differences among any of the groups with regard to physical activity, skin condition, and eye condition. […] This behavior lasted about one week and then stopped.
The serum was analyzed for insulin, corticosterone and leptin, using standard commercially available immunoassays for the rat. Alkaline phosphatase, alanine aminotransferase, amylase, aspartate aminotransferase, chloride, cholesterol, creatinine phosphokinase, γ-glutamyl transpeptidase, glucose, hemoglobin, hematocrit, mean cell volume, platelets, potassium, sodium, triglycerides, and white blood cells were assayed by standard clinical laboratory methods. All data were pooled by treatment and subjected to a One-Way Analysis of Variance (ANOVA) followed by a Scheffe Comparison of Means analysis (for unbalanced groups). Statistix® for Windows, 1998. Analytical Software, Tallahassee, Fla. 32317.
The rats that were not sacrificed and had previously received the high dose DRD had their treatment withdrawn during a 14-day “recovery period.” On the 15th day of this recovery period these rats, plus five control rats, were sacrificed and all the above analyses were conducted.

[3] = Young growing male Wistar rats fed obesity-inducing diet, 90 days (Example 3); format: in vivo; conditions: fenfluramine group
Protocol: Young growing male Wistar rats, of about 220 grams average initial weight, were fed the obesity-inducing diet. Concomitantly, the rats were administered, 1.0 gram DRD, 1.5 grams DRD, or 5.0 grams DRD, by daily intubation, for 90 days. The treatment groups gained 21%, 24% and 47% less weight, respectively, than did the placebo controls. The rats administered fenfluramine gained 22% less weight than did the controls.
Thus, the prevention of weight gain appears to be due to a reduction in fat storage, and that the skeletal muscle had been preserved.

[4] = d-fenfluramine 2 mg/kg, 56 days

Structure (SMILES) | decrease of the amount of fat absorbed from the diet [1] | Average Final Weight, Gms ± SD. [2, 4] | Average Gain, Gms ± SD [2, 4] | calories required to cause a one-gram weight gain ([2]; fenfluramine) | food efficiency: gain in weight per calorie available for gain above maintenance ([2]; fenfluramine) | less weight gained than controls ([2]; fenfluramine 2 mg/kg daily, 56th day) | total food consumed ([2]; fenfluramine, 56 day period) | food efficiency lower than controls (grams gain per gram of food ingested) ([2]; fenfluramine, 56 days) | weight gained as fat (body composition) ([2]; fenfluramine, 56 days) | serum leptin ([2]; fenfluramine, end of 56-day treatment) | less weight gained than controls [3]
CCCCCCCCCCC[C@@H](C[C@@H]1OC(=O)[C@H]1CCCCCC)OC(=O)[C@H](CC(C)C)NC=O [Orlistat] | diet by 30%. | – | – | – | – | – | – | – | – | – | –
CCNC(C)Cc1cccc(C(F)(F)F)c1 (centres unmarked) [fenfluramine] | – | 325.7 ± 33.7 Gms | 106.9 ± 22.0 Gms | 18.16 calories | 0.0545 grams per calorie | 12.3% | consumed less total food over the 56 day period than the controls | 7.8% | gained significantly less fat than did the controls | less leptin than controls | 22%

— patent US20040071799A1, “Herbal compositions and methods for effecting weight loss in humans” (priority 2001, published 2004)
